Patent US20250235501A1, “Methods and Compositions for Treating or Preventing Neurological Injury or Neurological Disorders” (University of Connecticut, priority 2024, published 2025)

Key:
[1] = system: cultured cortical neurons; test: Mitochondrial function under OGD, Rh123 de-quenching assay; type: cell-based, mouse; details: WT neurons; 10 μM peptide overnight; 30 min OGD
Procedure: FIGS. 6F-6G show the effects of TAT-EE3 on mitochondrial function evaluated using R123 de-quenching assay. Cultured cortical from gM2KO mice, nM2KO mice and WT control littermates were incubated with 10 μM TAT-SC or TAT-EE3 for overnight before OGD exposure. […] External perfusion solution aCSF containing no Ca2+ (No Ca2+) was used as a control. WT neuron without OGD exposure was used as a control (WT control) to illustrate the rapid photo bleaching of Rh123. […] The accumulated numbers of neurons in each group for data analysis were from 3˜5 independent experiments using neurons isolated from 3 mice/group (***, p<0.001; ANOVA, Bonferroni's test; mean±SEM).
Mice pups at P0 were euthanized based on animal protocol. Whole brain was dissected out immediately and immersed in ice-cold Hank's Balanced Salt Solution (HBSS). […] Isolated cells were counted and plated on coverslips pre-coated with poly-L-lysine (Sigma-Aldrich, P4707) at a density about 500×10^3 cells/cm2 for OGD and H2O2 treatment, and 100×10^3 cells/cm2 for current recording. […]
Mitochondria function was evaluated using Rhodamine-123 dequenching as previously reported. […]
Fluorescence intensities at 509 nm with excitation at 488 nm was collected every 15 s for 30 min using CoolSNAP HQ2 (Photometrics) and data were analyzed using NIS-Elements (Nikon).

[2] = system: ERK1/2 and CREB activities (pERK1/2, pCREB); test: ERK1/2 and CREB activities in cultured neurons (WB); type: cell-based, mouse; details: WT neurons pre-incubated with peptide overnight, vs control
Procedure: FIGS. 7F-7H show the effects of TAT-EE3 on ERK1/2 and CREB activities in cultured neurons isolated from gM2KO and nM2KO mice, and WT littermates. WT neurons were treated with TAT-EE3 or TAT-SC for overnight before the experiments. Neurons were incubated for 1 h before experiments with 1) control (PBS), 2) NMDA (10 μM) to activate synaptic and extrasynaptic NMDARs, and 3) 4-AP 2.5 mM plus biccuculine (Bic) 50 μM (4-AP/Bic) to activate synaptic NMDARs. […] FIGS. 7G and 7H show the quantification of the active CERB and ERK1/2 in each group under three different treatment conditions (***, p<0.001; ANOVA, Bonferroni's test; mean±SEM, n=3).
Mice pups at P0 were euthanized based on animal protocol. Whole brain was dissected out immediately and immersed in ice-cold Hank's Balanced Salt Solution (HBSS). Meninges were removed thoroughly, and tissue of different brain areas was taken based on purposes. Brain tissue was cut into small pieces and digested with 0.25% trypsin (Thermal Fisher Scientific, 15090-046) in HBSS at 37° C. for 20 min. Digestion solution was quickly removed, and tissue pellets are washed with Neurobasal® Medium (Thermal Fisher Scientific, 21103-049) for 3 times. Cells were resuspended with appropriate amount of Neurobasal® Medium supplemented with 2% B27® supplement (Thermal Fisher Scientific, 17504-044), 3% horse serum (Thermal Fisher Scientific, 16050114), 0.25% L-glutamine (Thermal Fisher Scientific, 25030-081) and 1% penicillin/streptomycin (Thermal Fisher Scientific, 15140-122). Isolated cells were counted and plated on coverslips pre-coated with poly-L-lysine (Sigma-Aldrich, P4707) at a density about 500×10^3 cells/cm2 for OGD and H2O2 treatment, and 100×10^3 cells/cm2 for current recording. Cytosine arabinoside (Sigma-Aldrich, C1768) was added to maintain a concentration at 1 μM to inhibit the proliferation of non-neuronal cells. 24 h after plating, culture medium was changed to Neurobasal® Medium supplemented with 2% B27® supplement, 0.25% L-glutamine and 1% penicillin/streptomycin. The concentration of Cytosine arabinoside (araC) was increased to 2 μM. Medium was changed every 3 days. OGD and H2O2 treatment was conducted at 7th day of culture, and current recording was conducted at 7th, 10th and 14th day of culture.
NP-40/Triton lysis buffer ([…], 1% Triton™ X-100, 150 mM NaCl, 1 mM EDTA, 50 mM Tris, pH=8.0) containing proteinase inhibitors and phosphatase inhibitors was used to lyse both cultured cells and frozen brain tissue. […] Protein concentration was measured using Pierce™ Rapid Gold BCA Protein Assay Kit.
30-50 μg of total protein was loaded and separated proteins were transferred to Nitrocellulose membranes. […] Band intensity was quantified using ImageJ software and normalized with appropriate loading controls.

[3] = 4-AP 2.5 mM plus bicuculline 50 μM 1 h

Substance: TAT-EE3: membrane permeable disrupting peptide, sequence YGRKKRRQRRREEDTDSSEEMLALAEE (SEQ ID NO: 4)
- mitochondrial membrane depolarization induced by OGD (Rh123 fluorescence) [1]: markedly inhibited
- pCREB level after 4-AP/Bic treatment [2, 3]: increased
- pERK1/2 level after 4-AP/Bic treatment [2, 3]: increased
- pCREB level after NMDA treatment ([2]; NMDA 10 μM 1 h): increased
- pERK1/2 level after NMDA treatment ([2]; NMDA 10 μM 1 h): increased
